Columns and labels:
Assay type in all cases: in vivo
[1] = test system: Zea mays L. var. saccharata Sturt; assay: Cultivation of Zea mays L. var. saccharata Sturt with GSSG, sensory test (Example 4); conditions: 200 mL of 0.5 mM at root twice a week for 12 weeks
Source text: (§1) In the present example, Zea mays L. var. saccharata Sturt was cultivated under a condition different from Example 3 in how to apply GSSG. First, a Zea mays L. var. saccharata Sturt seed (TAKII & CO. Ltd., product number: Canberra 90) was sown in vermiculite (ASAHI INDUSTRIES Co., LTD.). One week after sowing, a Zea mays L. var. saccharata Sturt plant was transplanted to a hydroponic culture pot described in Example 1. To the plant, 3 g of Kumiai phosphorate ammonium nitrate potassium S-604 (Chisso Asahi Fertilizer Co., Ltd.) was applied as an additional fertilizer 4 weeks and 6 weeks after the sowing.
During 12 weeks after germination, 200 mL of 0.5 mM GSSG was applied at a root of the plant twice a week. For comparison, a Zea mays L. var. saccharata Sturt plant was cultivated by the same method as in the present example, except that GSSG was not applied, and fruit thereof was harvested.
Fruit was harvested 12 weeks after the sowing and subjected to a sensory test of sugar content. As a result, it was determined that fruit of the plant applied with GSSG increased in sugar content compared to that of the plant applied with no GSSG. Further, it was determined that the plant applied with GSSG increased in size and number of fruit.

Lycopersicum esculentum = assay: Change of sugar content over time after one application of GSH or GSSG (Example 6); conditions: 50 mL of 0.5 mM once at root 90 days after sowing; fruit harvested day 0 to day 4
Procedure: In the present example, a sugar content of a plant was determined after a substance for regulating an oxidation-reduction state of a cell was applied to the plant. The substance for regulating an oxidation-reduction state of a cell was GSH or GSSG. As in the case of Example 1, Lycopersicum esculentum was used as the plant. Specifically, the following operations were carried out.
Ninety days after sowing of Lycopersicum esculentum seeds, Lycopersicum esculentum plants were subjected to a GSH or GSSG treatment. The Lycopersicum esculentum plants were cultivated by the same method as in Example 1 except for the GSH or GSSG treatment. The GSH or GSSG treatment was such that 50 mL of 0.5 mM GSSH or 0.5 mM GSH (adjusted with 0.1N NaOH to be at pH 7) was applied once at a root per plant. Then, fruit of the plants was harvested every day from the 0th day until the 4th day after application of GSH or GSSG, and subjected to sugar content determination. […] FIG. 3 is a graph showing a determination result of relation between sugar content and the number of days from an application day of GSH or GSSG. In FIG. 3, the vertical scale indicates sugar content (Brix, unit: %) and the horizontal scale indicates days from the application day. In FIG. 3, lines labeled with circles, triangles, and squares show results of the plants applied with GSH, GSSG, and no GSH and no GSSG, respectively. […]

Prunus avium (Napoleon) = assay: Sugar content determination of Prunus avium fruit with refractometer (Example 8); conditions: leaf surface coated with 0.5 mM 4 and 3 weeks before harvest; vs no GSSG; ANOVA 5%
Procedure: In the present example, Prunus avium was cultivated. Specifically, 4 weeks and 3 weeks before an expected date of harvesting Prunus avium (Napoleon) fruit, a surface of a leaf on a branch having the fruit to be harvested was coated with 0.5 mM GSSG. The fruit was harvested on the expected date.
Next, the fruit harvested was subjected to a sensory test of sugar content. As a result, it was determined that the fruit applied with GSSG increased in sugar content and decreased in acidity. Further, it was determined that the fruit applied with GSSG increased in weight. Furthermore, the fruit obtained was subjected to sugar content determination using “Pocket” Refractometer APAL-1 (ATAGO CO., LTD.). For comparison, fruit applied with no GSSG was also subjected to the sugar content determination. […] In FIG. 5, the vertical scale indicates sugar content (Brix, unit: %).

Citrus unshiu = Citrus unshiu leaf coating with GSSG, sensory test of fruit (Example 9); conditions: leaf surface coated with 0.5 mM one week before harvest
Procedure: In the present example, Citrus unshiu was cultivated. Specifically, one week before an expected date of harvesting Citrus unshiu fruit, a surface of a leaf on a branch having the fruit to be harvested was coated with 0.5 mM GSSG. The fruit was harvested on the expected date.
Next, the fruit harvested was subjected to a sensory test of sugar content. As a result, it was determined that the fruit applied with GSSG increased in sugar content and decreased in acidity. Further, it was determined that the fruit applied with GSSG increased in weight. Furthermore, the fruit obtained was subjected to sugar content determination using “Pocket” Refractometer APAL-1 (ATAGO CO., LTD.). For comparison, fruit applied with no GSSG was also subjected to the sugar content determination. […] In FIG. 6, the vertical scale indicates sugar content (Brix, unit: %).

Fragaria ananassa = assay: Sugar content determination of Fragaria ananassa fruit with refractometer (Example 10); conditions: 50 mL of 0.2 or 0.5 mM GSSG, or 0.4 or 0.5 mM GSH, once a week at root; significance level 5%
Procedure: First, Fragaria ananassa seedlings were transplanted to a planter. In the planter, 6 L of vermiculite (ASAHI INDUSTRIES Co., LTD.), 3 L of KUREHA horticultural soil (KUREHA CORPORATION), and 3 L of vermiculite were layered as a lower, middle, and upper layers, respectively.
During cultivation of Fragaria ananassa plants, 50 mL of 0.2 mM or 0.5 mM GSSG or 50 mL of 0.4 mM or 0.5 mM GSH (adjusted with 0.1N NaOH to be at pH7) was applied once a week at a root per plant. The plants were grown for 63 days without being subjected to bud removal. For comparison, a Fragaria ananassa plant was grown under the same condition, except that GSSG and GSH were not applied. To the plants of any condition, 3 g of Kumiai phosphorate ammonium nitrate potassium S-604 (Chisso Asahi Fertilizer Co., Ltd.) was applied as an additional fertilizer once in 2 weeks.
Further, the fruit obtained was subjected to sugar content determination using “Pocket” Refractometer APAL-1 (ATAGO CO., LTD.). For comparison, fruit not applied with GSSG or GSH was also subjected to the sugar content determination. […] In FIG. 7, the vertical scale indicates sugar content (Brix, unit: %).

[2] = test system: Zea mays L. var. saccharata Sturt; assay: Cultivation of Zea mays L. var. saccharata Sturt with GSSG leaf spray, sensory test (Example 11)
Source text: as §1, with “cultivated.” for “cultivated under a condition different from Example 3 in how to apply GSSG.”, “86)” for “90)”, “Two weeks” for “One week”
In the 5th, 6th, 7th, and 8th week after the sowing, 0.5 mM GSSG (dissolved in 0.1% Tween80 serving as a spreading agent) was sprayed onto a leaf surface. For comparison, a Zea mays L. var. saccharata Sturt plant was cultivated by the same method as in the present example, except that Tween80, but not GSSG, was applied, and fruit thereof was harvested.
Fruit was harvested 86 days after the sowing and subjected to a sensory test of sugar content. As a result, it was determined that fruit of the plant applied with GSSG increased in sugar content compared to that of the plant applied with no GSSG. Further, the fruit obtained was subjected to sugar content determination using “Pocket” Refractometer APAL-1 (ATAGO CO., LTD.). For comparison, the fruit of the plant applied with no GSSG was also subjected to the sugar content determination. […] In FIG. 8, the vertical scale indicates sugar content (Brix, unit: %).
It was also determined that the plant applied with GSSG increased in size and number of fruit. Further, it was determined that the fruit of the plant applied with GSSG was already able to be harvested 70 days after the sowing.

[3] = 0.5 mM in 0.1% Tween80 sprayed onto leaf surface in weeks 5-8

Substance: oxidized glutathione [GSSG]
- number of fruit [1]: increased
- size of fruit [1]: increased
- sugar content of fruit (sensory test) ([1]; vs no GSSG): increased
- sugar content of fruit (Brix) after application (Lycopersicum esculentum): rapidly improve
- sugar content of fruit (Brix) (Prunus avium (Napoleon)): significantly improved
- acidity of fruit (sensory test) (Citrus unshiu): decreased
- sugar content of fruit (sensory test) (Citrus unshiu): increased
- weight of fruit (Citrus unshiu): increased
- sugar content of fruit (Brix), ANOVA versus fruit not applied (Fragaria ananassa): significant difference
- number of fruit [2, 3]: increased
- size of fruit [2, 3]: increased
- time at which fruit was already able to be harvested [2, 3]: 70 days after the sowing
- sugar content of fruit (sensory test) ([2]; 0.5 mM in 0.1% Tween80 sprayed onto leaf surface in weeks 5-8 after sowing, harvest 86 days, vs Tween80 only): increased

Source: patent US8524978B2, “Composition for production of plant body having improved sugar content, and use thereof” (Japan Science and Technology Agency, priority 2007, dated 2013)
